Among the data in US10538508B2, “Substituted amino triazoles useful as human chitinase inhibitors” (OncoArendi Therapeutics S.A., priority 2015, dated 2020) are IC50 values, retold here.

As usually defined, the IC50 is the midpoint of a concentration-inhibition curve.

SMILES strings stand for the structures. Bounds are passed on as bounds.

Chain of recombinant human CHIT1 (Q13231 22-466): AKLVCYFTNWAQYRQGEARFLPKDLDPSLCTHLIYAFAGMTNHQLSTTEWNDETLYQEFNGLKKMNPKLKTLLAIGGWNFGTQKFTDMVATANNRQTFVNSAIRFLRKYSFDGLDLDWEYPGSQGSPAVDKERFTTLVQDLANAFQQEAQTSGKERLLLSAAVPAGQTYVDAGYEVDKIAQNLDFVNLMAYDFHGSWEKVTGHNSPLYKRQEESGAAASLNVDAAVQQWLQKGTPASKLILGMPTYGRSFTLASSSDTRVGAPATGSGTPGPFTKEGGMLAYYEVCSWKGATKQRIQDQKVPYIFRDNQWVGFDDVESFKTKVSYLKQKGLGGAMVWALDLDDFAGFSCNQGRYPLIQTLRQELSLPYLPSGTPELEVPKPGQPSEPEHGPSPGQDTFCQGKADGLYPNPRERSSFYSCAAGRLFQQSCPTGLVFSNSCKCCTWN

In one experiment the target is recombinant human AMCase (Homo sapiens (Human), UniProt Q9BZP6). In words: Human AMCase Activity Assay. In kind it is biochemical. The note with it: citrate buffer pH 5.2, 37° C., 60 minutes, read-out: Activity on hAMCase, IC50.
Chain of recombinant human AMCase (Q9BZP6 22-476): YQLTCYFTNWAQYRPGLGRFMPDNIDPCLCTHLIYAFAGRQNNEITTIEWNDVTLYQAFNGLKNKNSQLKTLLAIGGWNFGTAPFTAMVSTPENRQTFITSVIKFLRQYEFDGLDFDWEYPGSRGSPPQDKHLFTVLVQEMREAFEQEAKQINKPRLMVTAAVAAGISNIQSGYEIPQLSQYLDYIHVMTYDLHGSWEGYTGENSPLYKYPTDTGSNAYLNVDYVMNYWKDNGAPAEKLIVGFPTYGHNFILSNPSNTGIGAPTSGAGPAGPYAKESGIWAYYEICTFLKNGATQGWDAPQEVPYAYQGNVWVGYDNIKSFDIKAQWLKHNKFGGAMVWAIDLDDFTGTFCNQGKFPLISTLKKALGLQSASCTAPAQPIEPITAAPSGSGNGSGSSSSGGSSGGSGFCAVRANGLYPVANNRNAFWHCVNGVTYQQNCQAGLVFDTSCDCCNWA
`CN1C[C@H](Cc2ccc(Cl)cc2)N(C2CCN(c3nnc(N)[nH]3)CC2)C[C@@H]1CC1CCCCC1` [Example 32, 5-(4-((2 S, 5S)-2-(4-chlorobenzyl)-5-(cyclohexylmethyl)-4-methylpiperazin-1-yl)piperidin-1-yl)-4H-1,2,4-triazol-3-amine]: the IC50 is under 0.1 µM.

With `CN1C[C@H](Cc2ccc(Cl)cc2)N(C2CCN(c3nnc(N)[nH]3)CC2)C[C@@H]1Cc1ccc(Cl)cc1` [Example 31, 5-(4-((2S,5S)-2,5-bis(4-chlorobenzyl)-4-methylpiperazin-1-yl)piperidin-1-yl)-4H-1,2,4-triazol-3-amine], the IC50 was under 0.1 µM.

With `CC(C)C[C@H]1CN(C2CCN(c3nnc(N)[nH]3)CC2)[C@@H](Cc2ccc(Cl)cc2)CN1C` [Example 33, 5-(4-((2S,5S)-2-(4-chlorobenzyl)-5-isobutyl-4-methylpiperazin-1-yl)piperidin-1-yl)-4H-1,2,4-triazol-3-amine], the IC50 is under 0.1 µM.

Another experiment has as its target recombinant human CHIT1 (Homo sapiens (Human), UniProt Q13231). In words: Human CHIT1 Activity Assay. It counts as biochemical. To be noted: recombinant human CHIT1, citrate buffer pH 5.2, 37° C., 60 minutes; read-out: Activity on hCHIT1, IC50.
Turning to `COC(=O)CN1C[C@H](Cc2ccc(Cl)cc2)N(C2CCN(c3nnc(N)[nH]3)CC2)C[C@@H]1C` [Example 40, methyl 2-((2S,5S)-4-(1-(5-amino-4H-1,2,4-triazol-3-yl)piperidin-4-yl)-5-(4-chlorobenzyl)-2-methylpiperazin-1-yl)acetate], the IC50 is 0.1 to 1 µM.

With `C[C@H]1CN(C2CCN(c3nnc(N)[nH]3)CC2)[C@@H](Cc2ccc(Cl)cc2)CN1S(C)(=O)=O` [Example 37, 5-(4-((2S,5S)-2-(4-chlorobenzyl)-5-methyl-4-(methylsulfonyl)piperazin-1-yl)piperidin-1-yl)-4H-1,2,4-triazol-3-amine], the IC50 fell in the range of 10 to 100 µM.

`COC(C)(C)[C@H]1CN(C2CCN(c3nnc(N)[nH]3)CC2)[C@@H](Cc2ccc(Cl)cc2)CO1` [Example 14, 5-(4-((2R,5S)-5-(4-chlorobenzyl)-2-(2-methoxypropan-2-yl)morpholino)piperidin-1-yl)-4H-1,2,4-triazol-3-amine]: the IC50 was under 0.1 µM.

With `COC(=O)N1C[C@H](Cc2ccc(Cl)cc2)N(C2CCN(c3nnc(N)[nH]3)CC2)C[C@@H]1C` [Example 39, methyl (2S,5S)-4-(1-(5-amino-4H-1,2,4-triazol-3-yl)piperidin-4-yl)-5-(4-chlorobenzyl)-2-methylpiperazine-1-carboxylate], the IC50 lay within 10 to 100 µM.

With `C[C@H]1CN(C2CCN(c3nnc(N)[nH]3)CC2)[C@@H](Cc2ccc(Cl)cc2)C(C)(C)O1` [Example 53, 5-(4-((3S,6S)-3-(4-chlorobenzyl)-2,2,6-trimethylmorpholino)piperidin-1-yl)-4H-1,2,4-triazol-3-amine], the IC50 was in the range of 10 to 100 µM.
